Tests used:
[1] = tested on: AMPK; assay: AMPK activation assay (western blot phospho-AMPK Thr172) in C2C12; assay type: cell-based, mouse; conditions: C2C12 cells, 30 min treatment
In short: (§1)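 Mouse C2C12, mouse 3T3-L1 and human Hep G2 cells in high-glucose DMEM/10% FBS were treated with compounds for 30 min, 24 h after plating. Lysates were western-blotted for phospho-AMPK (Thr172) and total AMPK, ECL-detected, and bands quantified by densitometry.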

[2] = tested on: AMPK; assay: AMPK activation assay (western blot phospho-AMPK Thr172) in 3T3-L1; assay type: cell-based, mouse; conditions: 3T3-L1 cells, 30 min treatment
In short: as §1

[3] = tested on: AMPK; assay: AMPK activation assay (western blot phospho-AMPK Thr172) in Hep G2; assay type: cell-based, human; conditions: Hep G2 cells, 30 min treatment
In short: as §1

[4] = tested on: muscle cell C2C12; assay: Glucose uptake in vitro (fluorescent glucose analog 2-NBDG); assay type: cell-based, mouse; conditions: 30 min treatment, mean±SEM of three experiments
Procedure: Effects of representative compounds on glucose uptake were analyzed in muscle cell C2C12 by using fluorescent glucose analog (2-NBDG, Molecular Probes). C2C12 were treated with selected novel AMPK activator for 30 min at 37° C. then exposed to 500 μM of fluorescent glucose analog. After 5 min incubation at room temperature, cells were washed three times with Kreb-Hepes buffered solution and fix in 70% alcohol. The fluorescence of glucose analog in cells was detected using a Fluorescence Microplate Reader System at 480-nm excitation and 530-nm emission wavelength.
Data are presented as the mean±SEM of three independent experiments.

## Cc1ccc(CNc2ncnc3nc[nH]c23)cc1 [6-(4-methylbenzylamino)purine]
[1]; 1 microM
  AMPK activation (% to control) C2C12: 112 % to control
[1]; 10 microM
  AMPK activation (% to control) C2C12: 158 % to control
[1]; 100 microM
  AMPK activation (% to control) C2C12: 270 % to control
[1]; 200 microM
  AMPK activation (% to control) C2C12: 358 % to control
[2]; 1 microM
  AMPK activation (% to control) 3T3-L1: 110 % to control
[2]; 10 microM
  AMPK activation (% to control) 3T3-L1: 163 % to control
[2]; 100 microM
  AMPK activation (% to control) 3T3-L1: 259 % to control
[2]; 200 microM
  AMPK activation (% to control) 3T3-L1: 347 % to control
[3]; 1 microM
  AMPK activation (% to control) Hep G2: 106 % to control
[3]; 10 microM
  AMPK activation (% to control) Hep G2: 121 % to control
[3]; 100 microM
  AMPK activation (% to control) Hep G2: 245 % to control
[3]; 200 microM
  AMPK activation (% to control) Hep G2: 348 % to control
[4]; C2C12, 1 microM
  Glucose uptake (% to control): 114 ± 9.2 % to control
[4]; C2C12, 10 microM
  Glucose uptake (% to control): 205 ± 14.6 % to control
[4]; C2C12, 100 microM
  Glucose uptake (% to control): 281 ± 11.5 % to control
[4]; C2C12, 600 microM
  Glucose uptake (% to control): 309 ± 9.1 % to control

From patent US9938279B2, “Method for treating disease or condition susceptible to amelioration by AMPK activators and compounds of formula which are useful to activate AMP-activated protein kinase (AMPK)” (ENERGENESIS BIOMEDICAL CO., LTD, priority 2013, dated 2018)
